Tests used:
HT29 (R273H) = assay: Cell viability assay (CellTiterGlo), HT29; assay type: cell-based, human
Method: (§1) Figure 1 PG3 inhibits cell proliferation and growth in a p53-indepent manner. (A–E) Cell viability assay, dose response curves and IC50 value measurements in a panel of cancer cell lines and normal cells. Cells were treated with different concentrations of PG3, PG3-Oc (Oc), obatoclax (Ob), prodigiosin (P) or DMSO for 72 h. Luciferase activity was imaged by the IVIS Imaging System after treatment. Cell viability data were normalized to those of DMSO treatment control in each cell line and data analyses were performed using PRISM4 software. IC50 data are expressed as the mean ±SD (normal; n = 3).
as §1, with “2 p53-dependent inhibition of” for “1 PG3 inhibits”, “is only observed at specific concentrations. (A–J)” for “and growth in a p53-indepent manner. (A–E)”, “ZMC1, CP-313908, APR-246, Ellipticine, Nutalin-3a” for “PG3, PG3-Oc (Oc), obatoclax (Ob), prodigiosin (P)”
(§2) Cells were seeded in 96-well plates (6 × 10^3 cells/well). Cells were treated with different concentrations of compounds or dimethyl sulfoxide (DMSO) as a control for 72 hours. The cell viability was assessed by CellTiterGlo bioluminescent cell viability assay (Promega), following the manufacturer’s protocol. Bioluminescence imaging was measured using the IVIS imager. The percentage of cell viability (mean ± SEM) at each dose was calculated against the respective DMSO control. The IC50 values were determined from the sigmoidal dose-response curves using GraphPad Prism.

HCT116 (R175H) = assay: Cell viability assay (CellTiterGlo), HCT116 R175H; assay type: cell-based, human
Method: as §1
as §1, with “2 p53-dependent inhibition of” for “1 PG3 inhibits”, “is only observed at specific concentrations. (A–J)” for “and growth in a p53-indepent manner. (A–E)”, “ZMC1, CP-313908, APR-246, Ellipticine, Nutalin-3a” for “PG3, PG3-Oc (Oc), obatoclax (Ob), prodigiosin (P)”
as §2

[1] = test system: HFF-1 (human foreskin fibroblast cell with wild-type p53); assay: Cell viability assay (CellTiterGlo), HFF-1 normal cells; assay type: cell-based; conditions: 72 h, CellTiterGlo, normal cells; read-out: IC50 values, HFF-l (WT)
Method: as §1
as §1, with “2 p53-dependent inhibition of” for “1 PG3 inhibits”, “is only observed at specific concentrations. (A–J)” for “and growth in a p53-indepent manner. (A–E)”, “ZMC1, CP-313908, APR-246, Ellipticine, Nutalin-3a” for “PG3, PG3-Oc (Oc), obatoclax (Ob), prodigiosin (P)”
as §2

[2] = test system: MRC5 (human lung fibroblast cell with wild-type p53); assay: Cell viability assay (CellTiterGlo), MRC5 normal cells; assay type: cell-based; conditions: 72 h, read-out: IC50 values, MRC5 (WT)
Method: as §1
as §1, with “2 p53-dependent inhibition of” for “1 PG3 inhibits”, “is only observed at specific concentrations. (A–J)” for “and growth in a p53-indepent manner. (A–E)”, “ZMC1, CP-313908, APR-246, Ellipticine, Nutalin-3a” for “PG3, PG3-Oc (Oc), obatoclax (Ob), prodigiosin (P)”
as §2

[3] = test system: SW480 cells carrying a p53-responsive luciferase reporter; assay: p53-responsive reporter assay; assay type: cell-based, human; conditions: 30 μM, 15 hour time point
Method: SW480 cells carrying a p53-responsive luciferase reporter were used for assay of functional restoration of mutant p53. Cells were seeded in 96-well plates (5 × 10^4 cells/well) and were treated with compounds indicated for 6 and 15 h, respectively. Then, D-luciferin was added to each well with final concentration 100 μg/mL, and cells were imaged by using an IVIS Imaging System to detect luciferase activity.
p53-mutant SW480 human colon cancer cells, stably expressing a p53-responsive luciferase reporter, were used to assay functional restoration p53 pathway-dependent transcription in mutant p53-expressing tumor cells. Cells were seeded in 96-well plates (5 × 10^4 cells/well) and were treated with small-molecule compounds for 6 and 15 h, respectively. Then, D-luciferin was added to each well at a final concentration of 100 μg/mL, and cells were imaged by using an IVIS Imaging System (Xenogen) to detect luciferase activity.

ATF4 = assay: Western blot, ATF4 induction; assay type: cell-based, human; conditions: 24 h
Method: (§3) Figure 4 Activation of ATF4 and up-regulation of typical p53 target genes. (A–E) Western blot analysis of p53 protein levels and upregulation of ATF4, PUMA, DR5 and p21. Cells were treated for 24 h with indicated compounds, concentrations and cell lines. Abbreviations: S.E.: Short exposure; L.E.: Long exposure.
(§4) After treatment, protein lysates were collected for Western blot analysis. A total of 15 μg of protein was used for SDS-PAGE. After primary and secondary antibody incubations, the signal was detected by a chemiluminescence detection kit, imaged by Syngene (Imgen Technologies). Antibodies for NAG-1 (GDF15) and P53 were from Santa Cruz Biotechnology; for caspase 8, cleaved caspase 8, caspase 9, caspase 3, cleavage PARP, eIF2α, p-eIF2α (Ser51), CHOP, ATF4, DR5, and PUMA were from Cell Signaling Technology. Noxa and p21 were from Calbiochem. Ran was from BD Biosciences.

p53 protein = assay: Western blot, p53 protein levels; assay type: cell-based, human
Method: Cells were treated for 24 h with indicated compounds, concentrations and cell lines. Abbreviations: S.E.: Short exposure; L.E.: Long exposure.
as §4

DR5 = assay: Western blot, DR5 induction; assay type: cell-based, human
Method: as §3, §4

PUMA = assay: Western blot, PUMA induction; assay type: cell-based, human
Method: as §3, §4

p21 = assay: Western blot, p21 induction; assay type: cell-based, human
Method: as §3, §4

[4] = test system: GCN2, PKR, eIF2α, ATF4, CHOP in HT29 cells; assay: Western blot, ISR kinases / eIF2α / ATF4 / CHOP; assay type: cell-based, human
Method: Figure 7 PG3 induces upregulation of ATF4 through ISR via HRI. (A) HT29 cells were treated with PG3, GSK2606414, TG and ONC201 respectively, or co-treatment with PG3/GSK2606414, PG3/TG, and PG3/ONC201 for 15 h. (B) MEF, MEF^PERK−/− and MEF^GCN2−/− cells were treated with PG3 and ONC201 for 16 hours. (C) HT29 cells were transfected with siControl, siPKR, siHRI and siPKR/siHRI for 24 hours and then treated with PG3 for 16 hours. (D) HCT116 p53^−/− cells were transfected with siControl and siHRI for 24 hours and then treated with PG3 for 16 hours. (E) HCT116 p53^−/− cells were treated with PG3 and ONC201 for indicated times. (F) PANC1-sgCtrl, -sgHRI and -sgPKR cell lines were treated with PG3 and imipridones (ONC201, ONC206 and ONC212) for 16 hours. Western blot was performed using indicated antibodies. (G) Proposed model of PG3-induced cell apoptosis through HRI/ATF4/PUMA axis. Abbreviation: L.E.: Long exposure.
as §4
Supplementary Figure 2: ROS and NO are not responsible for PG3-induced HRI activation. (A, B) cells were pre-treated
with ZnPP, L-NMMA, SA and NAC for 2 hours respectively, and then ONC201 or PG3 was added to the medium for 24 hour treatment.
Western blot was performed using indicated antibodies.
(1 picture or pasted object on this page, not shown here)

HRI = test system: HRI; set-up: method as in PMID 22827572; conditions: cited from earlier work

COc1ccc(/C=C/c2nc(NCCCN(C)C)c3ccccc3n2)cc1 [CP-31398]
IC50 (HT29 (R273H); 72 h, CellTiterGlo): 0.647 µM | inhibition of cell viability (HT29 (R273H); HT29, 0.04 μM): potently inhibited | fold more potency in HT29 than in HFF-1 (HT29 (R273H); HT29 vs HFF-1): 12.2 fold | fold more potency in HT29 than in MRC5 (HT29 (R273H); HT29 vs MRC5): 9.1 fold | IC50 (HCT116 (R175H); 72 h, CellTiterGlo): 9.58 µM | selective inhibition among HCT116 isogenic cell lines (HCT116 (R175H); HCT116-R175H compared to HCT116 (WT) and HCT116 p53–/–, 10 μM): selective inhibition | IC50 [1]: 7.92 µM | IC50 [2]: 5.92 µM | p53-responsive reporter activity [3]: able to activate the reporter | upregulation of ATF4 (ATF4; HT29 and TOV-112D, compared to PG3 and PG3-Oc): more potently induces upregulation of ATF4 | upregulation of ATF4 (ATF4; three isogenic HCT116 cell lines): does not upregulate ATF4 | wild-type p53 protein level (p53 protein; HCT116, 24 h): marginal stabilization | endogenous mutant p53 R273H protein level (p53 protein; HT29, 24 h): stabilizes | endogenous mutant p53 R175H protein level (p53 protein; TOV-112D, 24 h): marginally destabilizes | exogenous mutant p53 R175H protein level (p53 protein; engineered HCT116-R175H cells, 24 h): no effects | upregulation of DR5 (DR5; HCT116 (p53 wild-type), 24 h): does not upregulate DR5 | upregulation of DR5 (DR5; HCT116 p53-R175H, 24 h): does not upregulate DR5 | upregulation of DR5 (DR5; HCT116 p53–/–, 24 h): does not upregulate DR5 | upregulation of DR5 (DR5; HT29, 24 h): mildly upregulates DR5 | upregulation of DR5 (DR5; TOV-112D, 24 h): upregulates DR5 in a comparable manner to PG3 and PG3-Oc | upregulation of PUMA (PUMA; HCT116 (p53 wild-type), 24 h): induces PUMA expression | upregulation of PUMA (PUMA; HCT116 p53-R175H, 24 h): barely | upregulation of PUMA (PUMA; HCT116 p53–/–, 24 h): barely | upregulation of PUMA (PUMA; HT29, 24 h): induces PUMA expression | upregulation of PUMA (PUMA; TOV-112D, 24 h): barely | upregulation of p21 (p21; HCT116 (p53 wild-type), 24 h): significantly | upregulation of p21 (p21; HCT116 p53-R175H, 24 h): barely | upregulation of p21 (p21; HCT116 p53–/–, 24 h): barely | upregulation of p21 (p21; HT29, 24 h): significantly | upregulation of p21 (p21; TOV-112D, 24 h): upregulates p21 strongly

Cn1cc(-c2ccc3c(c2)CCN3C(=O)Cc2cccc(C(F)(F)F)c2)c2c(N)ncnc21 [GSK2606414, 7-methyl-5-(1-{[3-(trifluoromethyl)phenyl]acetyl}-2,3-dihydro-1H-indol-5-yl)-7H-pyrrolo[2,3-d]pyrimidin-4-amine]
effect on ONC201-induced upregulation of ATF4 and CHOP ([4]; HT29, co-treatment with ONC201): significantly attenuates | effect on PG3-induced eIF2α phosphorylation, ATF4 and CHOP upregulation ([4]; HT29, co-treatment with PG3, 15 h): does not block | effect on TG-induced upregulation of ATF4 and CHOP ([4]; HT29, co-treatment with thapsigargin): abolishes | IC50 (HRI): 0.42 µM

Reference: paper PMC11407758, “Integrated stress response (ISR) activation and apoptosis through HRI kinase by PG3 and other p53 pathway-restoring cancer therapeutics” (Oncotarget, 2024)
